Publication PMC5341572, “Self-Assembly and Anti-Amyloid Cytotoxicity Activity of Amyloid beta Peptide Derivatives” (Scientific Reports, 2017)
Several values for one entry are separate records, joined by “and”; a condition that tells them apart may be missing. Identical values can stand only once. Entries after “also recorded” stand apart in the source; their conditions may differ.

Tests used:
[1] = test system: SH-SY5Y neuroblastoma cells; assay: MTS neurotoxicity assay with SH-SY5Y cells; format: cell-based; settings: 24 h
Protocol: SH-SY5Y neuroblastoma cells were maintained in a 1:1 ratio of Ham’s F12 and Dulbecco’s Modified Eagle Medium with 10% foetal calf serum and penicillin/streptomycin at 37 °C and 5% CO2. At 85–95% confluence the cells were detached from their growth substrate using trypsin and the growth medium was removed following centrifugation of the cells at 500xg for five minutes. The cells were re-suspended in a serum-free medium (Optimem with penicillin/streptomycin) and distributed at 20,000 cells per well in a 96-well plate then incubated at 37 °C, 5% CO2 for a further 24 hours. […] Cells were incubated for a further 24 hours as above and then assayed for cell survival using an MTS based assay (CellTiter 96 AQueous One Solution Cell Proliferation Assay from Promega).

[2] = test system: primary rat cortical neurons; assay: MTS neurotoxicity assay with primary neurons; format: cell-based; settings: final Aβ 20 μM, 20 h
Protocol: Neuronal cultures were obtained from E16 rat embryos as described[63] with modifications. Briefly, brain cortical tissue was dissected free of meninges and suspended in 0.5 ml of Ca^2+ and Mg^2+ –free Hank’s balanced solution (Gibco). Tissue was then incubated with 4 ml of 0.25% trypsin in a 37 °C water bath for 20 min with agitation. After digestion, tissue was centrifuged at 1000 rpm for 2 min, suspended in DMEM (Gibco) containing 10% fetal calf serum (FCS) (Internegocios) and incubated at 37 °C for 10 min. The pellet was washed with DMEM 10% FCS and allowed to rest for 10 min. Medium was replaced with 1 ml Neurobasal medium (Gibco) and triturated with a 10 ml plastic pipette. […]
Aliquots were dried under a gentle stream of N2 and re-suspended in 20 mM Tris-HCl, pH 7.4, containing 50 mM NaCl (working buffer). […] Cell viability was measured using a (3-(4, 5-dimethylthiazol-2-yl)-5-(3-carboxymethoxyphenyl)-2-(4-sulfophenyl)-2H-tetrazolium) (MTS) reduction assay. Twenty μl of MTS solution containing phenazine ethyl sulfate were added to wells, incubated for 1 h and absorbance was measured at 490 nm. Viability was expressed as the O.D. relative to neurons treated with working buffer alone. […] Data of three MTS assays were analyzed by one-way ANOVA and Bonferroni post hoc test with Graph Pad Prism v. […]

Aβ(1–42) = target: T1, Aβ(1–42) (Homo sapiens, UniProt P05067); assay: CD spectroscopy of Aβ(1–42) secondary structure on addition of peptide; settings: Aβ(1–42):peptide molar ratio 1:1.2 for peptide 1 and 1:1.6 for peptide 2; Tris buffer pH 7.4
T1 construct: purchased American Peptide Inc. (Sunnyvale, USA)
T1 sequence (P05067 672-713): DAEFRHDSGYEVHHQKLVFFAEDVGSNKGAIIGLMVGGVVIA
Protocol: HFIP was then evaporated under a slow stream of N2.
CD spectra were recorded using a Chirascan spectropolarimeter (Applied Photophysics, UK). Peptide solutions were placed in a cover slip cuvette (1 × 10^−2 or 0.1 mm thick), spectra presented being with absorbance A < 2 at any measured point with a 0.5 nm step, 1 nm bandwidth, and 1 s collection time per step. The CD signal from the background was subtracted from the CD data of the sample solutions. […] CD experiments were performed using a Quartz cuvette with 1mm path length.

[3] = ESI mass spectrometry of peptide oligomerisation with and without HFIP; format: physicochemical
Protocol: Samples were diluted to 0.029 wt % peptide in both H2O and HFIP:H2O (1:9; v/v). ESI mass spectra were acquired in positive ion mode on a Synapt G2-Si instrument (Waters Corporation, Wilmslow, UK). The employed Z-spray ESI source (Waters Corporation, Wilmslow, UK) was operated at 1.8 kV and the ESI sample solutions were infused at 10 μL/min using a KD Scientific syringe pump (KD Scientific Inc., Holliston, USA). The desolvation and source temperature were 150 °C and 80 °C, respectively, and the cone voltage was set to 40 V. ESI mass spectra were acquired in triplicate in sensitivity mode with the exception of higher resolution mass spectra, which were acquired once in resolution mode with ion mobility separation enabled. For the latter, wave velocity and wave height were set to 650 m/s and 40 V, respectively, and the helium and nitrogen flow rates were 180 and 90 mL/min, respectively. The acquired data was converted to mzML format using the msconvert tool from the ProteoWizard software package. In-house developed software based on the pymzML software library[62] was used to extract the integrated isotopomer signal intensities of interest from the converted data files. The integrated ion signal intensities of the monomer (SM) and all oligomers (SO) were summed for each acquired spectrum to determine the total ion signal intensity of the analysed peptide species (ST):
The relative extent of oligomerisation (EO) was determined by dividing the integrated ion signal intensities of the oligomers (SO) by the total ion signal intensity of the analysed peptide (ST): […]

[4] = ANS fluorescence assay for critical aggregation concentration (cac); format: physicochemical; settings: discontinuity in concentration-dependent ANS fluorescence; 74 μM ANS solution, λex 356 nm, spectra 400-670 nm
Protocol: 8-anilo-1-naphthalenesulfonic acid (ANS) and thioflavin T (ThT) fluorescence were used to locate the critical aggregation concentration (cac). Spectra were recorded with a Varian Cary Eclipse fluorescence spectrometer with samples in 4 mm inner width quartz cuvettes. The ANS fluorophore is a probe sensitive to the hydrophobicity of its surrounding environment, making it suitable to determine the cac. ANS assays were performed measuring spectra from 400 to 670 nm (λex = 356 nm), using a 74 μM ANS solution to solubilize the peptide. ThT fluorescence depends on the formation of amyloid-like structures[36][37] (β-sheet fibrils) and is used for amyloid fibril-forming peptides. For the ThT assay, the spectra were recorded from 460 to 600 nm using an excitation wavelength of λex = 440 nm, and the peptide was dissolved in a 5.0 × 10^−3 wt % ThT solution.

[5] = peptide to Aβ(1–42) ratio 1:2 (2.5 μM peptide, 5 μM Aβ)
[6] = peptide to Aβ(1–42) ratio 1:5 (1 μM peptide, 5 μM Aβ)
[7] = peptide to Aβ(1–42) ratio 1:20 (0.25 μM peptide, 5 μM Aβ)

SMILES | effect on Aβ(1–42) cytotoxicity, in words [1, 5] | effect on Aβ(1–42) cytotoxicity, in words [1, 6] | effect on Aβ(1–42) cytotoxicity, in words [1, 7] | effect on viability of Aβ(1–42)-treated neurons ([2]; Aβ:peptide 1:1 (equimolarity), co-incubated 72 h with 100 μM Aβ(1–42)) | improvement of viability of Aβ(1–42)-treated neurons ([2]; Aβ:peptide molar ratio 1:1.5, co-incubated 72 h, p < 0.05) | β-sheet minimum (216 nm) in CD spectrum of Aβ(1–42) upon addition of peptide (Aβ(1–42)) | aggregation state n of self-assemblies (oligomers) seen by ESI MS ([3]; 0.029 wt% peptide) | relative extent of oligomerisation (Eo)H2O ([3]; 0.029 wt% peptide in H2O, positive-ion ESI MS, oligomer signal / total peptide signal, spectra in triplicate) | relative extent of oligomerisation (Eo)HFIP ([3]; 0.029 wt% peptide in HFIP:H2O (1:9 v/v), positive-ion ESI MS, oligomer signal / total peptide signal, spectra in triplicate) | critical aggregation concentration (cac), ANS assay (hydrophobic collapse) [4] | effect of peptide alone on cells, in words ([1]; 2.5 μM peptide in the absence of Aβ(1–42)) | effect on Aβ(1–42) cytotoxicity, in words ([1]; peptide to Aβ(1–42) ratio 1:2 (2.5 μM peptide, 5 μM Aβ), listed as Peptide 2)
CC(C)C[C@H](NC(=O)[C@@H](N)CCCCN)C(=O)N[C@H](C(=O)N[C@@H](Cc1ccccc1)C(=O)N[C@@H](Cc1ccccc1)C(N)=O)C(C)C [peptide 1, NH2-KLVFF-CONH2] | block the cytotoxic effect | not very effective; also recorded: no protective effect | not very effective; also recorded: no protective effect | no effect | ~ 70% | significantly reduced | ≤ 7 | 0.040 ± 0.002 | 0.046 ± 0.002 | 1.00 ± 5 × 10^−2 wt% and ~ 1 wt% | – | –
CC(C)C[C@H](NC(=O)[C@@H](N)CCCCNC(=O)OC(C)(C)C)C(=O)N[C@H](C(=O)N[C@@H](Cc1ccccc1)C(=O)N[C@@H](Cc1ccccc1)C(N)=O)C(C)C [peptide 2, NH2-K(Boc)LVFF-CONH2] | block the cytotoxic effect | positive effect | positive effect | – | – | – | – | – | – | – | negative effect | rescues the cells
